≈ marks a conversion by molar mass, not a printed value. Like-named read-outs stand apart in the source and are kept apart here.
How the values were obtained:
Format in all cases: cell-based
Shig. dysenteriae = test: In vitro antibacterial activity (Steers' agar dilution MIC); conditions: Shigella dysenteriae
[1] = tested on: S. aureus (Methicillin-R); test: In vitro activity (geometric mean MIC, serial dilution); conditions: Staphylococcus aureus; 15 strains; Mueller-Hinton agar, inoculum 10^4 dilution; MIC cutoff 200 mcg./ml.
Pr. vulgaris = test: In vitro antibacterial activity (Steers' agar dilution MIC); conditions: Proteus vulgaris
S. marcescens = test: In vitro activity (geometric mean MIC, serial dilution); conditions: Serratia marcescens; 16 strains; Mueller-Hinton agar, inoculum 10^4 dilution; MIC cutoff 200 mcg./ml.; read-out: Geometric Mean MIC
[2] = tested on: Enterobacter (Cephalosporinase +); test: as above; conditions: 7 strains, Mueller-Hinton agar, inoculum 10^4 dilution, MIC cutoff 200 mcg./ml.
Pr. rettgeri = test: In vitro antibacterial activity (Steers' agar dilution MIC); conditions: Providencia rettgeri
Pr. morganii = test: as above; conditions: Morganella morganii
Proteus (indole +) = test: In vitro activity (geometric mean MIC, serial dilution); conditions: read-out: Geometric Mean MIC
Providencia sp. = test: as above; conditions: read-out: Geometric Mean MIC
E. coli (sensitive) = test: as above; conditions: Escherichia coli, read-out: Geometric Mean MIC
S. pyogenes = test: as above; conditions: Streptococcus pyogenes; 10 strains; Mueller-Hinton agar, inoculum 10^4 dilution; MIC cutoff 200 mcg./ml.
B. anthracis = test: microbe, parasite or virus in culture; conditions: Bacillus anthracis
Enterobacter (sensitive) = test: In vitro activity (geometric mean MIC, serial dilution); conditions: 3 strains, Mueller-Hinton agar, inoculum 10^4 dilution, MIC cutoff 200 mcg./ml., read-out: Geometric Mean MIC
[3] = tested on: S. aureus penicillinase+); test: as above; conditions: Staphylococcus aureus, read-out: Geometric Mean MIC
Ps. aeruginosa = test: In vitro antibacterial activity (Steers' agar dilution MIC)
Sal. enteritidis = test: as above; conditions: Salmonella enterica
Serr. marcescens = test: as above; conditions: Serratia marcescens
Kl. pneumoniae = test: as above; conditions: Klebsiella pneumoniae
Source text: (§1) In vitro Antibacterial Activity of BB-S493 Compared with
(§2) BB-S479 and Cefamandole (Determined by Steers' Agar Dilu-
(§3) tion Method on Mueller-Hinton Agar Plate)
(§4) In vitro antibacterial activity of BB-S 525 compared with
(§5) BB-S 479 and cefamandole (determined by Steers' agar dilution
(§6) method on Mueller-Hinton agar plate)

Shig. flexneri = test: as above
Source text: as §1, §2, §3, §4, §5, §6

Shig. sonnei = test: as above; conditions: Shigella sonnei
Source text: as §1, §2, §3, §4, §5, §6

E. coli = test: as above; conditions: Escherichia coli
Source text: as §1, §2, §3, §4, §5, §6

Sal. typhosa = test: as above
Source text: as §1, §2, §3, §4, §5, §6

S. aureus = test: as above; conditions: Staphylococcus aureus
Source text: as §1, §2, §3, §4, §5, §6

Proteus (indole-) = test: In vitro activity (geometric mean MIC, serial dilution); conditions: 6 strains; Mueller-Hinton agar, inoculum 10^4 dilution; MIC cutoff 200 mcg./ml.; read-out: Geometric Mean MIC
St. faecalis = test: In vitro antibacterial activity (Steers' agar dilution MIC); conditions: Enterococcus faecalis

Structure (SMILES): Cn1nnnc1SCC1=C(C(=O)O)N2C(=O)[C@@H](NC(=O)[C@H](O)c3ccccc3)[C@H]2SC1 [Cefamandole, reference compound]
- MIC (Shig. dysenteriae; table 2 (BB-S493), Shig dysenteriae): 0.2 µg/mL (≈ 0.432 µM)
- MIC (Shig. dysenteriae; table 4 (BB-S 525), Shig. dysenteriae): 0.1 µg/mL (≈ 0.216 µM)
- MIC [1]: 2.4 µg/mL (≈ 5.19 µM)
- MIC (Pr. vulgaris): 50 µg/mL (≈ 108 µM)
- MIC (Pr. vulgaris; table 2 (BB-S493), Pr. vulgaris A9436, read-out: MIC): 0.2 µg/mL (≈ 0.432 µM)
- MIC (Pr. vulgaris; table 2 (BB-S493), Pr. vulgaris A9699, read-out: MIC): 25 µg/mL (≈ 54.1 µM)
- MIC (Pr. vulgaris; table 4 (BB-S 525), Pr. vulgaris, 1st line, read-out: MIC): 0.2 µg/mL (≈ 0.432 µM)
- MIC (S. marcescens): 34 µg/mL (≈ 73.5 µM)
- MIC [2]: 4.7 µg/mL (≈ 10.2 µM)
- MIC (Pr. rettgeri; table 2 (BB-S493), Pr. rettgeri A15167): 0.1 µg/mL (≈ 0.216 µM)
- MIC (Pr. rettgeri; table 4 (BB-S 525), Pr. rettgeri): 0.1 µg/mL (≈ 0.216 µM)
- MIC (Pr. morganii; table 2 (BB-S493), Pr. morganii A9553, read-out: MIC): > 100 µg/mL
- MIC (Pr. morganii; table 2 (BB-S493), Pr. morganii A20031): 0.8 µg/mL (≈ 1.73 µM)
- MIC (Pr. morganii; table 4 (BB-S 525), Pr. morganii, 1st line): 3.1 µg/mL (≈ 6.7 µM)
- MIC (Pr. morganii; table 4 (BB-S 525), Pr. morganii, 2nd line): 0.8 µg/mL (≈ 1.73 µM)
- MIC (Proteus (indole +)): 0.5 µg/mL (≈ 1.08 µM)
- MIC (Providencia sp.): 0.7 µg/mL (≈ 1.51 µM)
- MIC (E. coli (sensitive)): 0.3 µg/mL (≈ 0.649 µM)
- MIC (S. pyogenes): 0.04 µg/mL (≈ 0.0865 µM)
- MIC (B. anthracis; table 2 (BB-S493), B. anthracis A9504): 0.2 µg/mL (≈ 0.432 µM)
- MIC (B. anthracis; table 4 (BB-S 525), B. anthracis): 0.05 µg/mL (≈ 0.108 µM)
- MIC (Enterobacter (sensitive)): 1 µg/mL (≈ 2.16 µM)
- MIC [3]: 0.4 µg/mL (≈ 0.865 µM)
- MIC (Ps. aeruginosa; Pseudomonas aeruginosa, table 2 (BB-S493), Ps. aeruginosa A9843, read-out: MIC): > 100 µg/mL
- MIC (Ps. aeruginosa; table 2 (BB-S493), Ps. aerugionsa A9930): > 100 µg/mL
- MIC (Ps. aeruginosa; table 4 (BB-S 525), Ps. aeruginosa, 1st line): > 100 µg/mL
- MIC (Ps. aeruginosa; table 4 (BB-S 525), Ps. aeruginosa, 2nd line): > 100 µg/mL
- MIC (Sal. enteritidis; table 2 (BB-S493), Sal. enteritidis A9531): 0.1 µg/mL (≈ 0.216 µM)
- MIC (Sal. enteritidis; table 4 (BB-S 525), Sal. enteritidis): 0.1 µg/mL (≈ 0.216 µM)
- MIC (Serr. marcescens; table 4 (BB-S 525), Serr. marcescens): 50 µg/mL (≈ 108 µM)
- MIC (Serr. marcescens; table 2 (BB-S493), Serr. marcescens A20019): 50 µg/mL (≈ 108 µM)
- MIC (Kl. pneumoniae; table 2 (BB-S493), Kl. pneumoniae A9678): 1.6 µg/mL (≈ 3.46 µM)
- MIC (Kl. pneumoniae; table 2 (BB-S493), Kl. pneumoniae A9867): 0.8 µg/mL (≈ 1.73 µM)
- MIC (Kl. pneumoniae; table 2 (BB-S493), Kl. pneumoniae A9977): 0.4 µg/mL (≈ 0.865 µM)
- MIC (Kl. pneumoniae; table 2 (BB-S493), Kl. pneumoniae A15130): 0.4 µg/mL (≈ 0.865 µM)
- MIC (Kl. pneumoniae; table 4 (BB-S 525), Kl. pneumoniae, 1st line): 3.1 µg/mL (≈ 6.7 µM)
- MIC (Kl. pneumoniae; table 4 (BB-S 525), Kl. pneumoniae, 2nd line): 0.2 µg/mL (≈ 0.432 µM)
- MIC (Kl. pneumoniae; table 4 (BB-S 525), Kl. pneumoniae, 3rd line): 0.8 µg/mL (≈ 1.73 µM)
- MIC (Kl. pneumoniae; table 4 (BB-S 525), Kl. pnuemoniae, 4th line): 0.8 µg/mL (≈ 1.73 µM)
- MIC (Shig. flexneri; Shigella flexneri, table 2 (BB-S493), Shig. flexneri A9684, read-out: MIC): 3.1 µg/mL (≈ 6.7 µM)
- MIC (Shig. flexneri; table 4 (BB-S 525), Shig. flexneri): 3.1 µg/mL (≈ 6.7 µM)
- MIC (Shig. sonnei; table 2 (BB-S493), Shig. sonnei A9516): 0.05 µg/mL (≈ 0.108 µM)
- MIC (Shig. sonnei; table 4 (BB-S 525), Shig. sonnei): 0.2 µg/mL (≈ 0.432 µM)
- MIC (E. coli; ATCC8739, table 2 (BB-S493), E. coli ATCC 8739, read-out: MIC): 0.05 µg/mL (≈ 0.108 µM)
- MIC (E. coli; ATCC8739, table 4 (BB-S 525), E. coli ATCC 8739): 6.3 µg/mL (≈ 13.6 µM)
- MIC (E. coli; table 2 (BB-S493), E. coli A9660, read-out: MIC): 0.1 µg/mL (≈ 0.216 µM)
- MIC (E. coli; table 2 (BB-S493), E. coli A15147, read-out: MIC): 3.1 µg/mL (≈ 6.7 µM)
- MIC (E. coli; table 2 (BB-S493), E. coli A15810, read-out: MIC): 0.2 µg/mL (≈ 0.432 µM)
- MIC (E. coli; table 2 (BB-S493), E. coli BX-1373, read-out: MIC): 0.4 µg/mL (≈ 0.865 µM)
- MIC (E. coli; table 2 (BB-S493), E. coli Juhl A15119, read-out: MIC): 0.4 µg/mL (≈ 0.865 µM)
- MIC (E. coli; table 2 (BB-S493), E. coli NIHJ, read-out: MIC): 0.025 µg/mL (≈ 0.0541 µM)
- MIC (E. coli; table 4 (BB-S 525), E. coli BX-1373, read-out: MIC): 0.2 µg/mL (≈ 0.432 µM)
- MIC (E. coli; table 4 (BB-S 525), E. coli Juhl, read-out: MIC): 0.4 µg/mL (≈ 0.865 µM)
- MIC (E. coli; table 4 (BB-S 525), E. coli NIHJ, read-out: MIC): 0.1 µg/mL (≈ 0.216 µM)
- MIC (E. coli; table 4 (BB-S 525), E. coli, strain not given, 1st line, read-out: MIC): 0.1 µg/mL (≈ 0.216 µM)
- MIC (E. coli; table 4 (BB-S 525), E. coli, strain not given, 2nd line, read-out: MIC): 0.05 µg/mL (≈ 0.108 µM)
- MIC (E. coli; table 4 (BB-S 525), E. coli, strain not given, 3rd line, read-out: MIC): 1.6 µg/mL (≈ 3.46 µM)
- MIC (Sal. typhosa; table 2 (BB-S493), Sal. typhosa A9498): 0.1 µg/mL (≈ 0.216 µM)
- MIC (Sal. typhosa; table 4 (BB-S 525), Sal. typhosa): 0.1 µg/mL (≈ 0.216 µM)
- MIC (S. aureus; table 2 (BB-S493), S. aureus A9497): 0.05 µg/mL (≈ 0.108 µM)
- MIC (S. aureus; table 2 (BB-S493), S. aureus BX-1633 A9606): 0.2 µg/mL (≈ 0.432 µM)
- MIC (S. aureus; table 2 (BB-S493), S. aureus Smith A9537): 0.1 µg/mL (≈ 0.216 µM)
- MIC (S. aureus; table 4 (BB-S 525), S. aureus (strain not given)): 0.05 µg/mL (≈ 0.108 µM)
- MIC (S. aureus; table 4 (BB-S 525), S. aureus BX-1633): 0.2 µg/mL (≈ 0.432 µM)
- MIC (S. aureus; table 4 (BB-S 525), S. aureus Smith): 0.2 µg/mL (≈ 0.432 µM)
- MIC (Proteus (indole-)): 0.6 µg/mL (≈ 1.3 µM)
- MIC (St. faecalis): 50 µg/mL (≈ 108 µM)
- MIC (St. faecalis; table 4 (BB-S 525), St. faecalis, read-out: MIC): 100 µg/mL (≈ 216 µM)
